Legend:
[1] = system: purified yeast fungus (C. glabrata); test: Staining of yeast-like fungi in spiked negative urine, flow cytometer UF-5000 SF channel, average fluorescence intensity of the yeast cluster; assay type: cell-based; details: for average value of the fluorescence intensity compared with 2-phenoxyethanol used alone: Example 2, compound mixed with 2-phenoxyethanol; for average value of the fluorescence intensity compared with when other compounds are used: concentrations of Table 2
Procedure: Each of the following substances was dissolved in purified water to prepare a buffer solution.
When the compound shown in the following table was not dissolved, the compound was used after filtration. […] Furthermore, a first reagent having the same composition as Diluting Liquid of EXAMPLE-1 of U.S. Patent Publication No. 2006/0073601 was prepared. The first reagent is represented by [2-phenoxyethanol(*)] in the following table. In the following table, the compound of the present embodiment is shown in bold.
UF-fluorocell SF for UF-5000 (Sysmex Corporation) was used. Such reagents include polymethine-based dyes and stain lipid bilayer membranes and porous protein aggregates of cells, and the like.
A purified yeast fungus (C. glabrata) was added to negative urine to a concentration of about 1800 cells/μL. In order to confirm the effect on red blood cells, human blood was added to negative urine so that the concentration of red blood cells was about 400 cells/μL. As the negative urine, a commercially available Normal Human Urine (Golden West Diagnostics, LLC) was filtered through a 0.22-μm membrane filter, and a urine specimen having a negative result in a sediment assay was used.
A measurement sample was prepared by mixing a first reagent and a second reagent with a urine sample, and measurement was performed using an SF channel of a flow cytometer UF-5000 (Sysmex Corporation), and a scattergram was prepared in which a forward scattered light intensity was taken on the vertical axis and a fluorescence intensity was taken on the horizontal axis. In measurement using the SF channel, red blood cells, crystals, a glass cylinder, a cylinder containing contents, and the like are measured. To calculate the average value of the fluorescence intensity of yeast fungi, an arbitrary region Y for each measurement was set, and the average value of the fluorescence intensity of a population of dots appearing in the region was calculated. Note that the value of the fluorescence intensity is a relative value when the minimum value of the horizontal axis in the scattergram is 0 and the maximum value is 255.
SF. Specifically, after mixing 362.5 μL of the first reagent, 125 μL of the urine specimen, and 12.5 μL of the second reagent, the measurement sample was prepared by stirring at about 39° C. for 9 seconds, and then flowed into the flow cell of the detection section. Information on scattered light and fluorescence emitted from particles in the measurement sample that received the laser beam was acquired by the detection unit. A scattergram was generated based on the obtained optical information.

[2] = system: yeast-like fungi; test: Clinical urine specimens, staining of yeast-like fungi on the scattergram; assay type: cell-based; details: Example 4, chlorphenesin 3 g/L, or 1,2-octanediol 2 g/L with 2-phenoxyethanol 6 g/L, control UF-CELLPACK SF
Procedure: The following specimens were used as the specimen. • (1) Clinical specimen 1: a specimen in which yeast-like fungi and red blood cells are detected in a microscopy • (2) Clinical specimen 2 to 4: a specimen in which yeast-like fungi have been detected by microscopy • (3) Clinical specimen 5 to 10: a specimen in which red blood cells are detected in a microscopy
A urine sample was measured in the same manner as in Example 1, except that the first reagent was prepared by adding 3 g/L chlorphenesin or 6 g/L 2-phenoxyethanol and 2 g/L 1,2-octanediol to the buffer solution described in Example 1. In addition, a urine sample was measured in the same manner as in Example 1 using UF-CELLPACK SF (manufactured by Sysmex) as a first reagent as a control. UF-CELLPACK SF (manufactured by Sysmex) contained 6 g/L of 2-phenoxyethanol. In the following table, the compound of the present embodiment is shown in bold.

[3] = Example 1, 10 g/L in first reagent, final 7.3 g/L, filtered if not dissolved, relative scale 0-255

OCCCCC(O)CO (stereo not drawn) [1,2,6-HEXANETRIOL, reference compound]
AVERAGE VALUE OF FLUORESCENT SIGNAL INTENSITY [1, 3]: 80.5

CCCCCCCCC(O)CO (stereo not drawn) [1,2-DECANEDIOL, 1,2-decanediol]
AVERAGE VALUE OF FLUORESCENT SIGNAL INTENSITY ([1]; Example 1, 1 g/L in first reagent, final 0.7 g/L, relative scale 0-255): 252.7

CCCCCCCCCCC(O)CO (stereo not drawn) [1,2-DODECANEDIOL, reference compound]
AVERAGE VALUE OF FLUORESCENT SIGNAL INTENSITY ([1]; Example 1, 0.5 g/L in first reagent, final 0.4 g/L, relative scale 0-255): 107.6

CCCCC(O)CO (stereo not drawn) [1,2-HEXANEDIOL, reference compound]
AVERAGE VALUE OF FLUORESCENT SIGNAL INTENSITY [1, 3]: 107.7

CCCCCCC(O)CO (stereo not drawn) [1,2-OCTANEDIOL, 1,2-octanediol]
AVERAGE VALUE OF FLUORESCENT SIGNAL INTENSITY ([1]; Example 1, 6 g/L in first reagent, final 4.4 g/L, relative scale 0-255): 253.4
average value of the fluorescence intensity compared with 2-phenoxyethanol used alone [1]: significantly larger
AVERAGE VALUE OF FLUORESCENT SIGNAL INTENSITY ([1]; Example 3, 3 g/L in first reagent, final 2.2 g/L): 222.1
AVERAGE VALUE OF FLUORESCENT SIGNAL INTENSITY ([1]; Example 3, 4 g/L in first reagent, final 2.9 g/L): 245.3
AVERAGE VALUE OF FLUORESCENT SIGNAL INTENSITY ([1]; Example 3, 5 g/L in first reagent, final 3.6 g/L): 251.0
AVERAGE VALUE OF FLUORESCENT SIGNAL INTENSITY ([1]; Example 3, 6 g/L in first reagent, final 4.4 g/L): 252.1
staining of yeast-like fungi ([2]; clinical specimen 1 (yeast-like fungi and red blood cells)): more strongly stained
staining of yeast-like fungi ([2]; clinical specimens 2 to 4 rich in yeast-like fungi): more strongly stained

OCCCCCCCCO [1,8-OCTANEDIOL, reference compound]
AVERAGE VALUE OF FLUORESCENT SIGNAL INTENSITY [1, 3]: 120.5

COc1cccc(OCC(C)O)c1 (stereo not drawn) [1-(3-METHOXYPHENOXY)-2-PROPANOL, 1-(3-methoxyphenoxy)-2-propanol]
AVERAGE VALUE OF FLUORESCENT SIGNAL INTENSITY ([1]; Example 1, 9 g/L in first reagent, final 6.5 g/L, relative scale 0-255): 246.8
average value of the fluorescence intensity compared with when other compounds are used ([1]; Example 1): significantly larger

CCCCCCCCC(C)O (stereo not drawn) [2-DECANOL, reference compound]
AVERAGE VALUE OF FLUORESCENT SIGNAL INTENSITY [1, 3]: 106.0

CCCCCC(C)O (stereo not drawn) [2-HEPTANOL, 2-heptanol]
AVERAGE VALUE OF FLUORESCENT SIGNAL INTENSITY [1, 3]: 250.1
average value of the fluorescence intensity compared with 2-phenoxyethanol used alone [1]: significantly larger

CCCCCCC(C)O (stereo not drawn) [2-OCTANOL, 2-octanol]
AVERAGE VALUE OF FLUORESCENT SIGNAL INTENSITY [1, 3]: 240.6

OCCOc1ccccc1 [2-PHENOXYETHANOL, 2-phenoxyethanol, reference compound]
AVERAGE VALUE OF FLUORESCENT SIGNAL INTENSITY ([1]; Example 1, 7.5 g/L in first reagent, final 5.4 g/L, relative scale 0-255): 196.9

OCCCOc1ccccc1 [3-PHENOXY-1-PROPANOL, 3-phenoxy-1-propanol]
AVERAGE VALUE OF FLUORESCENT SIGNAL INTENSITY ([1]; Example 1, 7 g/L in first reagent, final 5.1 g/L, relative scale 0-255): 253.6
average value of the fluorescence intensity compared with when other compounds are used ([1]; Example 1): significantly larger
average value of the fluorescence intensity compared with 2-phenoxyethanol used alone [1]: significantly larger

COC(=O)c1ccc(O)cc1 [METHYLPARABEN, reference compound]
AVERAGE VALUE OF FLUORESCENT SIGNAL INTENSITY ([1]; Example 1, 1.9 g/L in first reagent, final 1.4 g/L, relative scale 0-255): 220.5

Oc1ccccc1-c1ccccc1 [ORTHOPHENYLPHENOL, orthophenylphenol]
AVERAGE VALUE OF FLUORESCENT SIGNAL INTENSITY ([1]; Example 1, 3 g/L in first reagent, final 2.2 g/L, relative scale 0-255): 250.1
average value of the fluorescence intensity compared with when other compounds are used ([1]; Example 1): significantly larger

OCCOCCOc1ccccc1 [PHENYL DIGLYCOL, reference compound]
AVERAGE VALUE OF FLUORESCENT SIGNAL INTENSITY [1, 3]: 165.0

Source: patent US20250305931A1, “METHOD FOR ANALYZING A URINE SAMPLE, AND A REAGENT FOR ANALYZING A URINE SAMPLE” (SYSMEX CORPORATION, priority 2024, published 2025)
